Assay results taken from patent US4287206A, “Halogen derivatives of 8-hydroxycarboxylic acids; the processes for their preparation and medicaments in which they are present” (priority 1978, dated 1981).
Where a name gives a salt, the structure may show the parent alone. Read-outs that look alike come from different tables or passages of the source.

What was measured:
mice [1] = experiment: Motor activity in mice (activity meters with photoelectric cells); type: in vivo; conditions: comparison of isomers; 32 mg/kg orally; in particular stimulant action
Description: The motor activity was determined with the aid of activity meters having photoelectric cells (Boissier and Simon, Arch. int. Pharmacodyn. 1965, 158, 212-221). A minimum of 10 animals was always used per batch.
The mice are placed in the activity meter just after the oral or intraperitoneal administration of the product acccording to the invention, obtained in accordance with Example I. The motor activity is measured as from the introduction into the activity meter up to the 60th minute. The counters are read after 30 minutes, then reset to 0 and read every 10 minutes for 30 minutes.

rats [2] = experiment: Influence of alpha-methyltyrosine on the stereotypies caused in rats; type: in vivo; conditions: alpha-methyltyrosine 64 mg.kg^-1 i.p. 150 min before Example III 8 mg.kg^-1 i.p.
Description: (§1) The tests were carried out on batches of 6 rats for each dose; immediately after the oral or intraperitoneal administration, the animals are placed in individual, transparent plastic 20×10×10 cm boxes provided with a pierced stainless steel lid. The stereotyped movements are rated from 0 to 3, in accordance with the method described by Simon and Chermat (J. Pharmacol. (Paris), 1972, 3, 235-238) every 10 minutes until they disappear in all the animals. The detailed curves are plotted and the surface area of the curve is calculated as described in the above reference.
(b) Influence of alpha-methyltyrosine
At time 0, the animals receive, by intraperitoneal administration, either distilled water or alphamethyltyrosine at a dose of 64 mg.kg^-1; after 150 minutes, they receive, by intraperitoneal administration, the medicament according to the invention, obtained in accordance with Example III, at a dose of 8 mg.kg^-1.
The animals are observed under the conditions described above in the study of the stereotypies in rats.

rats [3] = experiment: Influence of pimozide on the stereotypies caused in rats; type: in vivo; conditions: pimozide 1 mg.kg^-1 i.p. 30 min before Example III 8 mg.kg^-1 i.p.
Description: as §1
Research into the antagonistic effects of the stereotypies caused in rats by the medicament according to the invention
(a) Influence of pimozide
At time 0, pimozide (1 mg.kg^-1) or distilled water is administered intraperitoneally; after 30 minutes, all the animals receive, by intraperitoneal administration, the medicament according to the invention, obtained in accordance with Example III (8 mg.kg^-1). The stereotypies are assessed as described above. The surface area of the curve of the stereotypies is calculated.

[4] = Determination of the acute toxicity to mice (BEHRENS and KARBER); conditions: mouse, in vivo
Description: All the experiments reported below were carried out on male rats having a weight of between 170 and 220 g (Wistar AF strain) and male mice having a weight of between 18 and 23 g (Swiss NMRI strain), unless otherwise stated in the following text.
Determination of the acute toxicity to mice
Method used: BEHRENS and KARBER

mice [5] = experiment: Anti-reserpine activity in mice (reserpine hypothermia); type: in vivo; conditions: Table IIb, reserpine 2.5 mg.kg^-1 i.p. 4 h before
Description: Anti-reserpine activity in mice
At time 0, the mice receive reserpine (2.5 mg.kg^-1) by intraperitoneal administration.
After 4 hours, when the hypothermia is significant (30 to 31°C.), the substance to be studied is administered intraperitoneally or orally. The rectal temperature is measured, using a probe, carrying a thermoelectric couple, inserted to a constant depth, every 30 minutes for 2 hours.

mice [6] = experiment: Action on the toxicity of yohimbine to mice; type: in vivo; conditions: yohimbine hydrochloride 25 mg.kg^-1 s.c.
Description: Action on the toxicity of yohimbine to mice
At time 0, the mice receive, by oral administration, either distilled water or the medicament according to the invention; after 30 minutes, yohimbine hydrochloride (25 mg.kg^-1) is administered subcutaneously to the mice. The mortality is followed every hour for 4 hours and then recorded after 24 hours.

mice [7] = experiment: Anti-oxotremorine activity in mice (hypothermia induced by oxotremorine); type: in vivo; conditions: at the doses studied, oral or intraperitoneal
Description: Anti-oxotremorine activity in mice
At time 0, the mice receive oxotremorine (0.5 mg.kg^-1) by intraperitoneal administration; after 30 minutes, either distilled water or the medicament according to the invention, obtained in accordance with Example I, is administered to the mice intraperitoneally or orally.
The mice are then observed and the trembling is rated from 0 to 3 as a function of its intensity, every 10 minutes for 30 minutes. Moreover, the existence of peripheral symptoms (tears, hypersialosis and defections) is observed for 2 hours, in the presence or absence of trembling. The rectal temperature is measured every 30 minutes for 2 hours, after administration of oxotremorine.

rats [8] = experiment: Study of the stereotypies in rats; type: in vivo; conditions: rats
Description: Study of the stereotypies in rats
as §1

CC1CC(c2ccc(Cl)cc2)C(c2ccccc2)C(=O)O1 (stereo not drawn) [100% of β, Trans-4-(4'-chlorophenyl)-6-methyl-3phenyl-3,4,5,6-tetrahydropyrone-2, IIIβ]
activity compared with the mixture of 80 % of α and 20 % of β (mice [1]): more active

C[C@](N)(Cc1ccc(O)cc1)C(=O)O [alpha-methyltyrosine, reference compound]
effect of pre-treatment with alpha-methyltyrosine on the stereotypies caused by the medicament (rats [2]): virtually unmodified

O=c1[nH]c2ccccc2n1C1CCN(CCCC(c2ccc(F)cc2)c2ccc(F)cc2)CC1 [pimozide, reference compound]
effect of pimozide on the stereotypies caused by the medicament (rats [3]): very significantly antagonizes the stereotypies

CC(O)CC(c1ccc(Cl)cc1)C(C(=O)O)c1ccccc1 (centres unmarked) [product IV, sodium salt of 3-(4'-chlorophenyl)-5-hydroxy-2-phenylhexanoic acid]
LD50 ([4]; ip, intraperitoneal, read-out: LD50 (intraperitoneal administration)): 160 mg/kg
LD50 ([4]; oral, read-out: LD50 (oral administration)): 310 mg/kg
Rectal temperatures °C. ± SD (mice [5]; 8 mg/kg oral, 30 min): 30.9 ± 0.36 °C
Rectal temperatures °C. ± SD (mice [5]; 8 mg/kg oral, 60 min): 32.0 ± 0.56 °C
Rectal temperatures °C. ± SD (mice [5]; 8 mg/kg oral, 90 min): 32.2 ± 0.57 °C
Rectal temperatures °C. ± SD (mice [5]; 8 mg/kg oral, 120 min): 33.2 ± 0.56 °C
Rectal temperatures °C. ± SD (mice [5]; 16 mg/kg oral, 30 min): 31.1 ± 0.39 °C
Rectal temperatures °C. ± SD (mice [5]; 16 mg/kg oral, 60 min): 32.5 ± 0.60 °C
Rectal temperatures °C. ± SD (mice [5]; 16 mg/kg oral, 90 min): 32.7 ± 0.51 °C
Rectal temperatures °C. ± SD (mice [5]; 16 mg/kg oral, 120 min): 33.1 ± 0.43 °C
Rectal temperatures °C. ± SD (mice [5]; 32 mg/kg oral, 30 min): 31.3 ± 0.31 °C
Rectal temperatures °C. ± SD (mice [5]; 32 mg/kg oral, 60 min): 33.0 ± 0.44 °C
Rectal temperatures °C. ± SD (mice [5]; 32 mg/kg oral, 90 min): 33.7 ± 0.41 °C
Rectal temperatures °C. ± SD (mice [5]; 32 mg/kg oral, 120 min): 33.2 ± 0.38 °C
Rectal temperatures °C. ± SD (mice [5]; 64 mg/kg oral, 30 min): 32.8 ± 0.40 °C
Rectal temperatures °C. ± SD (mice [5]; 64 mg/kg oral, 60 min): 34.3 ± 0.32 °C
Rectal temperatures °C. ± SD (mice [5]; 64 mg/kg oral, 90 min): 34.5 ± 0.38 °C
Rectal temperatures °C. ± SD (mice [5]; 64 mg/kg oral, 120 min): 34.4 ± 0.41 °C
Mortality in % after the administration of yohimbine (mice [6]; Table Vb, 2 mg/kg administered orally, 4 hours): 10%
Mortality in % after the administration of yohimbine (mice [6]; Table Vb, 2 mg/kg administered orally, 24 hours): 10%
Mortality in % after the administration of yohimbine (mice [6]; Table Vb, 4 mg/kg administered orally, 4 hours): 20%
Mortality in % after the administration of yohimbine (mice [6]; Table Vb, 4 mg/kg administered orally, 24 hours): 20%
Mortality in % after the administration of yohimbine (mice [6]; Table Vb, 8 mg/kg administered orally, 4 hours): 30%
Mortality in % after the administration of yohimbine (mice [6]; Table Vb, 8 mg/kg administered orally, 24 hours): 30%
Mortality in % after the administration of yohimbine (mice [6]; Table Vb, 16 mg/kg administered orally, 4 hours): 70%
Mortality in % after the administration of yohimbine (mice [6]; Table Vb, 16 mg/kg administered orally, 24 hours): 70%
Mortality in % after the administration of yohimbine (mice [6]; Table Vb, 32 mg/kg administered orally, 4 hours): 80%
Mortality in % after the administration of yohimbine (mice [6]; Table Vb, 32 mg/kg administered orally, 24 hours): 80%
Mortality in % after the administration of yohimbine (mice [6]; Table Vb, 64 mg/kg administered orally, 4 hours): 100%
Mortality in % after the administration of yohimbine (mice [6]; Table Vb, 64 mg/kg administered orally, 24 hours): 100%
Mortality in % after the administration of yohimbine (mice [6]; Table Vb, 128 mg/kg administered orally, 4 hours): 80%
Mortality in % after the administration of yohimbine (mice [6]; Table Vb, 128 mg/kg administered orally, 24 hours): 80%
Mortality in % after the administration of yohimbine (mice [6]; Table Vb, 256 mg/kg administered orally, 4 hours): 100%
Mortality in % after the administration of yohimbine (mice [6]; Table Vb, 256 mg/kg administered orally, 24 hours): 100%

Threo-2-(4'-chlorophenyl)-4-hydroxy-1-phenylpentanecarbonitrile [Example II]
trembling and peripheral symptoms caused by oxotremorine (mice [7]): did not cause any modification
Mortality in % after the administration of yohimbine (mice [6]; Table Va, 2 mg/kg oral, 4 hours): 0%
Mortality in % after the administration of yohimbine (mice [6]; Table Va, 2 mg/kg oral, 24 hours): 0%
Mortality in % after the administration of yohimbine (mice [6]; Table Va, 4 mg/kg oral, 4 hours): 0%
Mortality in % after the administration of yohimbine (mice [6]; Table Va, 4 mg/kg oral, 24 hours): 0%
Mortality in % after the administration of yohimbine (mice [6]; Table Va, 8 mg/kg oral, 4 hours): 10%
Mortality in % after the administration of yohimbine (mice [6]; Table Va, 8 mg/kg oral, 24 hours): 10%
Mortality in % after the administration of yohimbine (mice [6]; Table Va, 16 mg/kg oral, 4 hours): 20%
Mortality in % after the administration of yohimbine (mice [6]; Table Va, 16 mg/kg oral, 24 hours): 20%
Mortality in % after the administration of yohimbine (mice [6]; Table Va, 32 mg/kg oral, 4 hours): 25%
Mortality in % after the administration of yohimbine (mice [6]; Table Va, 32 mg/kg oral, 24 hours): 25%
Mortality in % after the administration of yohimbine (mice [6]; Table Va, 64 mg/kg oral, 4 hours): 30%
Mortality in % after the administration of yohimbine (mice [6]; Table Va, 64 mg/kg oral, 24 hours): 30%
Mortality in % after the administration of yohimbine (mice [6]; Table Va, 128 mg/kg oral, 4 hours): 60%
Mortality in % after the administration of yohimbine (mice [6]; Table Va, 128 mg/kg oral, 24 hours): 60%
Mortality in % after the administration of yohimbine (mice [6]; Table Va, 256 mg/kg oral, 4 hours): 70%
Mortality in % after the administration of yohimbine (mice [6]; Table Va, 256 mg/kg oral, 24 hours): 70%
stereotypy activity, oral versus intraperitoneal administration (rats [8]; figure): slightly greater on oral administration
dose from which very significant stereotypies are present (rats [8]; mean surface area of the curve (figure)): ≥ 8 mg/kg
